According to paper PMC12966373 (Nature Communications, 2026):

Legend:
U2OS cells = test: Coacervate uptake and stability over 5 days in U2OS cells; format: cell-based, human; settings: particles pre-assembled at 0.5 mg/mL, diluted 1:10 to 1:3 in media; 4 h and 24 h
[1] = tested on: B16-F10 murine melanoma cells; test: Coacervate uptake in B16-F10 cells; format: cell-based, mouse; settings: particles pre-assembled at 0.5 mg/mL, diluted 1:10 to 1:3 in media; 4 h and 24 h
primary human monocytes = test: Coacervate uptake in primary human monocytes; format: cell-based; settings: particles pre-assembled at 0.5 mg/mL, diluted 1:10 to 1:3 in media; 4 h and 24 h
[2] = Coacervate assembly via pH shift: size and number by microscopy; format: physicochemical; settings: peptide 0.5 mg/mL or higher
[3] = cited from earlier work

GHGVYGHGVYGHGPYGHGPYGHGLYW [HBpep]
uptake by cells (U2OS cells): highly efficient uptake | uptake by cells [1]: highly efficient uptake | uptake by cells (primary human monocytes): highly efficient uptake | average particle diameter [2]: > 2 µm | solubility in acidic buffer ([3]; pH 4.5): largely soluble | behaviour at physiological pH ([3]; pH 7.4, standard conditions): phase separate
